The source of these data is a melting point compilation (Tetko et al.; mined from patent text by program, amines drawn as free bases though some values may be those of a salt).

`CC(C)C(=O)N(CCCCCC(=O)O)C(c1ccccc1)c1ccccc1` returned a melting point of 106 to 107 °C.
The same measure for `Cc1ccc(S(=O)(=O)OCC2OC(n3ccc(=O)[nH]c3=O)CC2O)cc1` (centres undefined): 162 °C; for `CCOC(=O)C1=C(C)NC(C)=C(C(=O)OCCC#N)C1c1ccccc1/C=C/C(=O)OC(C)(C)C` (centres undefined): 168 to 169 °C.
The compound `O=C(Nc1ccc(S(=O)(=O)N2CCOCC2)cc1)c1cc(N2CCOCC2)ccc1[N+](=O)[O-]` gave a melting point of 252 °C.
Take `O=C(Cl)c1c2ccccc2nc2ccccc12`: the melting point stood at 135 °C.
Turning to `COc1cc(Nc2c(C#N)cnc3cc(-c4cccc(NC(C)=O)c4)ccc23)c(Cl)cc1Cl`, the melting point was 262 to 263 °C.
Under `CCOP(=O)(OCC)C(C)(C)NC(=O)c1cccc(NC(=O)c2cccc([N+](=O)[O-])c2)c1` stands 120 to 121 °C; under `N#Cc1ccc(-c2cn(-c3ccc(I)cc3)c(SCC(O)CO)n2)cc1` (centres undefined), 160 to 174 °C; under `Nc1nc2ncnc(NCc3ccco3)c2[nH]1`, 128 to 130 °C.
With `Cc1nc(-n2ccc(OCC3CC3)cc2=O)sc1C(=O)NCc1ccccc1`, the melting point was in the range of 218 to 220 °C.
Take `CC(C)(C)OC(=O)N1CCC2(CC1)c1ccccc1CS2=O` (centres undefined): the melting point fell in the range of 103 to 107 °C.
As for `CC(C)(C)c1cc(NC(=O)C=Cc2ccccc2)cc(C(C)(C)C)c1O`, the melting point fell in the range of 211 to 214 °C.
The same measure for `CC12CC(F)C3C4CCC(=O)C=C4CC(CCCCCBr)C3C1CCC2=O` (centres undefined): 75 to 76 °C; for `CC(C)n1nc(C(Cl)C(=O)c2ccccc2)ccc1=O` (centres undefined): 86.5 to 87.5 °C; for `COC1CC2(C)C(CCC3C4CC(C)C(C(C)=O)C4(C)CC(=O)C32)CC1O` (centres undefined): 180 to 182 °C.
Regarding `CCc1nn(CCOc2ccc(CC3SC(=O)NC3=O)cc2)c(=O)c2ccccc12` (centres undefined), the melting point came to 174 °C.
The same measure for `CC(C)Oc1ccccc1-c1ncc(C(=O)O)c(=O)[nH]1`: 191 to 193 °C; for `CCn1nc2c(N)nc3c(c2c1CCC1CCCCC1)CCCC3`: 177 to 179 °C; for `O=c1cc(-c2ccccc2)oc2ccc(OCCCCN3CCC(O)CC3)cc12`: 124 to 125 °C.
For `CCC(C)c1cc(Cc2cc(C(C)CC)c(N)c(C)c2Cl)c(Cl)c(C)c1N` (centres undefined), the melting point is 94 to 102 °C.
Turning to `OCCCCC=CCCc1ccc(OCc2ccccc2)cc1`, the melting point lay in the range of 65 to 67 °C.
`CCCN1CC(OCC2CC2)(C(F)(F)F)c2cc(Cl)ccc2NC1=O` (centres undefined) came in with a melting point of 156 to 158 °C.
`CN(CC(O)c1cccc(O)c1)C(=O)c1cnc(N(C)C)nc1-c1ccccc1` (centres undefined) came in with a melting point of 79 to 81 °C.
As to `CON=CC(C)(C)C(O)(COc1cccc2ccccc12)Cn1ccnc1` (centres undefined), the melting point is 177 to 178 °C.
`CN1CCN(Cc2ccccc2-c2cc3c(Nc4ccc5[nH]ccc5c4)c(C#N)cnc3s2)CC1` returned a melting point of 226 to 228 °C.
The compound `CCOC(=O)Cc1ccc(CCNC(=O)c2cc(C)ccc2OC)cc1` returned a melting point of 83 to 85 °C.
Regarding `COc1ccc(-c2nn(C3CCCC3)c3c(C(F)(F)F)cccc23)c(OC)c1`, the melting point is 79 to 80 °C.
`COc1cc2cc(C(=O)N3CC(CCl)c4c3cc(N)c3ccccc43)[nH]c2cc1OCCN(C)C` (centres undefined) had a melting point of 130 to 133 °C.
On to `O=C1Nc2cc(F)ccc2N2CCN(CCCCc3ccncc3)CC12` (centres undefined), for which the melting point is 262 to 264 °C.
As for `C=CCC(C)(C)C(=O)NC1CCCNC(=O)C1` (centres undefined), the melting point lay within 71 to 72 °C.
Under `CC(C)(C)OC(=O)N[C@@H]1C[C@H](C(=O)O)Nc2cc(Cl)cc(Cl)c21` (relative stereo) stands 186 to 188 °C.
The compound `O=C(O)c1ccc(-c2ccc(NS(=O)(=O)c3cccnc3)cc2)[nH]c1=O` gave a melting point greater than 260 °C.
`CCCn1c(=O)c2[nH]c(/C=C/c3cccc(F)c3)nc2n(CCC)c1=O` registered a melting point of 265 to 266 °C.
Regarding `CC(C)OC(=O)N1CC(=O)Nc2ccc(Br)cc21`, the melting point lay within 159 to 161 °C.
